# What was measured:
# SR = experiment: NCI human tumor cell panel: SR (Leukemia); type: cell-based; conditions: for GI50: read-out: Log10 GI50 (converted); for IC (TGI): read-out: Log10 TGI (converted)
# EKVX = experiment: NCI human tumor cell panel: EKVX (Non-Small Cell Lung Cancer); type: cell-based; conditions: for GI50: read-out: Log10 GI50 (converted); for IC (TGI): read-out: Log10 TGI (converted)
# HOP-62 = experiment: NCI human tumor cell panel: HOP-62 (Non-Small Cell Lung Cancer); type: cell-based; conditions: for GI50: HOP-62, read-out: Log10 GI50 (converted); for IC (TGI): HOP-62, read-out: Log10 TGI (converted)
# NCI-H23 = experiment: NCI human tumor cell panel: NCI-H23 (Non-Small Cell Lung Cancer); type: cell-based; conditions: for GI50: NCI-H23, read-out: Log10 GI50 (converted)
# NCI-H322M = experiment: cells; type: cell-based; conditions: Homo sapiens; for IC (TGI): read-out: Log10 TGI (converted)
# COLO 205 = experiment: NCI human tumor cell panel: COLO 205 (Colon Cancer); type: cell-based; conditions: for GI50: COLO 205, read-out: Log10 GI50 (converted); for IC (TGI): COLO 205, read-out: Log10 TGI (converted)
# HCT-15 = experiment: NCI human tumor cell panel: HCT-15 (Colon Cancer); type: cell-based; conditions: for GI50: HCT-15, read-out: Log10 GI50 (converted); for IC (TGI): HCT-15, read-out: Log10 TGI (converted)
# HT29 = experiment: NCI human tumor cell panel: HT29 (Colon Cancer); type: cell-based; conditions: for GI50: HT-29, HT29, read-out: Log10 GI50 (converted); for IC (TGI): HT-29, HT29, read-out: Log10 TGI (converted)
# KM12 = experiment: NCI human tumor cell panel: KM12 (Colon Cancer); type: cell-based; conditions: for IC (TGI): KM12, read-out: Log10 TGI (converted)
# SW-620 = experiment: NCI human tumor cell panel: SW-620 (Colon Cancer); type: cell-based; conditions: for GI50: SW-620, read-out: Log10 GI50 (converted); for IC (TGI): SW-620, read-out: Log10 TGI (converted)
# SF-539 = experiment: NCI human tumor cell panel: SF-539 (CNS Cancer); type: cell-based; conditions: for GI50: SF-539, read-out: Log10 GI50 (converted); for IC (TGI): SF-539, read-out: Log10 TGI (converted)
# MALME-3M = experiment: NCI human tumor cell panel: MALME-3M (Melanoma); type: cell-based; conditions: Malme-3M; for GI50: read-out: Log10 GI50 (converted); for IC (TGI): read-out: Log10 TGI (converted)
# SK-MEL-2 = experiment: NCI human tumor cell panel: SK-MEL-2 (Melanoma); type: cell-based; conditions: for GI50: SK-MEL-2, read-out: Log10 GI50 (converted); for IC (TGI): SK-MEL-2, read-out: Log10 TGI (converted)
# SK-MEL-28 = experiment: NCI human tumor cell panel: SK-MEL-28 (Melanoma); type: cell-based; conditions: for GI50: SK-MEL-28, read-out: Log10 GI50 (converted); for IC (TGI): SK-MEL-28, read-out: Log10 TGI (converted)
# UACC-62 = experiment: NCI human tumor cell panel: UACC-62 (Melanoma); type: cell-based; conditions: for GI50: UACC-62, read-out: Log10 GI50 (converted); for IC (TGI): UACC-62, read-out: Log10 TGI (converted)
# OVCAR-4 = experiment: NCI human tumor cell panel: OVCAR-4 (Ovarian Cancer); type: cell-based; conditions: OVCAR-4, read-out: Log10 GI50 (converted)
# OVCAR-5 = experiment: NCI human tumor cell panel: OVCAR-5 (Ovarian Cancer); type: cell-based; conditions: for GI50: OVCAR-5, read-out: Log10 GI50 (converted)
# SK-OV-3 = experiment: NCI human tumor cell panel: SK-OV-3 (Ovarian Cancer); type: cell-based; conditions: for GI50: SK-OV-3, read-out: Log10 GI50 (converted); for IC (TGI): SK-OV-3, read-out: Log10 TGI (converted)
# A498 = experiment: NCI human tumor cell panel: A498 (Renal Cancer); type: cell-based; conditions: for GI50: A498, read-out: Log10 GI50 (converted); for IC (TGI): A498, read-out: Log10 TGI (converted)
# CAKI-1 = experiment: NCI human tumor cell panel: CAKI-1 (Renal Cancer); type: cell-based; conditions: for GI50: CAKI-1, read-out: Log10 GI50 (converted); for IC (TGI): CAKI-1, read-out: Log10 TGI (converted)
# SN12C = experiment: NCI human tumor cell panel: SN12C (Renal Cancer); type: cell-based; conditions: for GI50: read-out: Log10 GI50 (converted); for IC (TGI): read-out: Log10 TGI (converted)
# MDA-MB-231/ATCC = experiment: NCI human tumor cell panel: MDA-MB-231/ATCC (Breast Cancer); type: cell-based; conditions: Homo sapiens, MDA-MB-231, MDA-MB-231/ATCC; for GI50: read-out: Log10 GI50 (converted); for IC (TGI): read-out: Log10 TGI (converted)
# T-47D = experiment: NCI human tumor cell panel: T-47D (Breast Cancer); type: cell-based; conditions: T47D; for GI50: read-out: Log10 GI50 (converted); for IC (TGI): read-out: Log10 TGI (converted)
# NCI-H522 = experiment: NCI human tumor cell panel: NCI-H522 (Non-Small Cell Lung Cancer); conditions: for GI50: NCI-H522, read-out: Log10 GI50 (converted); for IC (TGI): NCI-H522, read-out: Log10 TGI
# [1] = test system: panel of sixty different human tumor cell lines; experiment: NCI human tumor cell panel: whole panel (mean graph summary); conditions: for GI50 / CC50: Homo sapiens; for GI50: read-out: Log10 GI50, MG_MID, mean over the panel (converted); for CC50: read-out: Log10 LC50, MG_MID, mean over the panel (converted); for Log10 TGI, MG_MID: mean over the panel; for Log10 TGI, Delta / Log10 TGI, Range: whole panel
# NCI-H226 = experiment: NCI human tumor cell panel: NCI-H226 (Non-Small Cell Lung Cancer); type: cell-based; conditions: NCI-H226, read-out: Log10 GI50 (converted)
compound,measurement,setting,value
OCc1ccc(-c2ccc(-c3ccc(CO)[se]3)s2)s1 [compound 688830],GI50,SR,24.5 µM
same,IC (TGI),SR,72.4 µM
same,GI50,EKVX,19.5 µM
same,IC (TGI),EKVX,66.1 µM
same,GI50,HOP-62,0.0617 µM
same,IC (TGI),HOP-62,28.2 µM
same,GI50,NCI-H23,85.1 µM
same,IC (TGI),"NCI-H23; NCI-H23, read-out: Log10 TGI (converted)",> 100 µM
same,IC (TGI),NCI-H322M,20 µM
same,GI50,COLO 205,0.447 µM
same,IC (TGI),COLO 205,5.5 µM
same,GI50,HCT-15,28.8 µM
same,IC (TGI),HCT-15,> 100 µM
same,GI50,HT29,0.224 µM
same,IC (TGI),HT29,43.7 µM
same,GI50,"KM12; KM12, read-out: Log10 GI50 (converted)",47.9 µM
same,IC (TGI),KM12,> 100 µM
same,GI50,SW-620,0.0398 µM
same,IC (TGI),SW-620,25.1 µM
same,GI50,SF-539,15.5 µM
same,IC (TGI),SF-539,36.3 µM
same,GI50,MALME-3M,43.7 µM
same,IC (TGI),MALME-3M,> 100 µM
same,GI50,SK-MEL-2,39.8 µM
same,IC (TGI),SK-MEL-2,> 100 µM
same,GI50,SK-MEL-28,> 100 µM
same,IC (TGI),SK-MEL-28,> 100 µM
same,GI50,UACC-62,0.0135 µM
same,IC (TGI),UACC-62,> 100 µM
same,GI50,OVCAR-4,0.105 µM
same,GI50,OVCAR-5,0.0229 µM
same,GI50,SK-OV-3,3.24 µM
same,IC (TGI),SK-OV-3,19.5 µM
same,GI50,A498,< 0.01 µM
same,IC (TGI),A498,0.0245 µM
same,GI50,CAKI-1,< 0.01 µM
same,IC (TGI),CAKI-1,0.0282 µM
same,GI50,SN12C,49 µM
same,IC (TGI),SN12C,> 100 µM
same,GI50,MDA-MB-231/ATCC,12.6 µM
same,IC (TGI),MDA-MB-231/ATCC,35.5 µM
same,GI50,T-47D,0.288 µM
same,IC (TGI),T-47D,57.5 µM
same,GI50,NCI-H522,> 100 µM
same,IC (TGI),NCI-H522,> 100 µM
same,GI50,[1],2.29 µM
same,CC50,[1],69.2 µM
same,"Log10 TGI, MG_MID",[1],−4.62
same,"Log10 TGI, Delta",[1],2.99
same,"Log10 TGI, Range",[1],3.61
O=Cc1ccc(-c2ccc(-c3ccc(C=O)[se]3)s2)s1 [compound 688829],GI50,SR,24.5 µM
same,IC (TGI),SR,72.4 µM
same,GI50,EKVX,> 100 µM
same,IC (TGI),EKVX,> 100 µM
same,GI50,HOP-62,0.251 µM
same,IC (TGI),HOP-62,15.8 µM
same,GI50,NCI-H226,0.891 µM
same,GI50,NCI-H23,> 100 µM
same,GI50,NCI-H322M; read-out: Log10 GI50 (converted),27.5 µM
same,IC (TGI),NCI-H322M,89.1 µM
same,GI50,COLO 205,12 µM
same,IC (TGI),COLO 205,33.1 µM
same,GI50,HCT-15,22.9 µM
same,IC (TGI),HCT-15,> 100 µM
same,GI50,HT29,23.4 µM
same,IC (TGI),HT29,> 100 µM
same,IC (TGI),KM12,> 100 µM
same,GI50,SW-620,0.832 µM
same,IC (TGI),SW-620,> 100 µM
same,GI50,SF-539,27.5 µM
same,IC (TGI),SF-539,> 100 µM
same,GI50,MALME-3M,28.8 µM
same,IC (TGI),MALME-3M,> 100 µM
same,GI50,SK-MEL-2,33.9 µM
same,IC (TGI),SK-MEL-2,> 100 µM
same,GI50,SK-MEL-28,66.1 µM
same,IC (TGI),SK-MEL-28,> 100 µM
same,GI50,UACC-62,0.141 µM
same,IC (TGI),UACC-62,> 100 µM
same,GI50,OVCAR-4,0.186 µM
same,GI50,OVCAR-5,0.123 µM
same,IC (TGI),"OVCAR-5; OVCAR-5, read-out: Log10 TGI (converted)",0.501 µM
same,GI50,SK-OV-3,26.3 µM
same,IC (TGI),SK-OV-3,> 100 µM
same,GI50,A498,0.0214 µM
same,IC (TGI),A498,0.0794 µM
same,GI50,CAKI-1,0.191 µM
same,IC (TGI),CAKI-1,0.501 µM
same,GI50,SN12C,28.2 µM
same,IC (TGI),SN12C,85.1 µM
same,GI50,MDA-MB-231/ATCC,23.4 µM
same,IC (TGI),MDA-MB-231/ATCC,67.6 µM
same,GI50,T-47D,0.339 µM
same,IC (TGI),T-47D,> 100 µM
same,GI50,NCI-H522,11.2 µM
same,IC (TGI),NCI-H522,39.8 µM
same,GI50,[1],5.37 µM
same,CC50,[1],87.1 µM
same,"Log10 TGI, MG_MID",[1],−4.35
same,"Log10 TGI, Delta",[1],2.75
same,"Log10 TGI, Range",[1],3.10
